Columns and labels:
[1] = target: T1, Alpha-1A adrenergic receptor (Homo sapiens) (UniProt P35348); assay: SafetyScreen: alpha1A Human Adrenoceptor GPCR Binding Antagonist Radioligand LeadHunter Assay, catalogue number: 2338; details: Test compound concentration 10.0 uM
T1 sequence (whole entry): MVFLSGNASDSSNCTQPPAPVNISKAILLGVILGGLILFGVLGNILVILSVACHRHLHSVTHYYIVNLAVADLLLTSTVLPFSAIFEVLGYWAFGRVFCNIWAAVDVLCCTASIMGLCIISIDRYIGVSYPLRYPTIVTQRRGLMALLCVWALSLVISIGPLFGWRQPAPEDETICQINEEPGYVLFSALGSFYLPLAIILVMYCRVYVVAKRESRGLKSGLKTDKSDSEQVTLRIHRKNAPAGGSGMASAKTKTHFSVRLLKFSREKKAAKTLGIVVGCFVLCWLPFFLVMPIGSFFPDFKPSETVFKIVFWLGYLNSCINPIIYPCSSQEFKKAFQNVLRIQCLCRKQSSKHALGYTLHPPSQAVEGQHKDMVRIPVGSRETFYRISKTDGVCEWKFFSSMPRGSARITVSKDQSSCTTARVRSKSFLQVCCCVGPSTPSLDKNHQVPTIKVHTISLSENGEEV

[2] = target: D(2) dopamine receptor (Homo sapiens) (UniProt P14416); assay: SafetyScreen: D2S Human Dopamine GPCR Binding Agonist Radioligand LeadHunter Assay, catalogue number: 1322; details: Test compound concentration 10.0 uM
Sequence of D(2) dopamine receptor (Homo sapiens) (P14416 whole entry): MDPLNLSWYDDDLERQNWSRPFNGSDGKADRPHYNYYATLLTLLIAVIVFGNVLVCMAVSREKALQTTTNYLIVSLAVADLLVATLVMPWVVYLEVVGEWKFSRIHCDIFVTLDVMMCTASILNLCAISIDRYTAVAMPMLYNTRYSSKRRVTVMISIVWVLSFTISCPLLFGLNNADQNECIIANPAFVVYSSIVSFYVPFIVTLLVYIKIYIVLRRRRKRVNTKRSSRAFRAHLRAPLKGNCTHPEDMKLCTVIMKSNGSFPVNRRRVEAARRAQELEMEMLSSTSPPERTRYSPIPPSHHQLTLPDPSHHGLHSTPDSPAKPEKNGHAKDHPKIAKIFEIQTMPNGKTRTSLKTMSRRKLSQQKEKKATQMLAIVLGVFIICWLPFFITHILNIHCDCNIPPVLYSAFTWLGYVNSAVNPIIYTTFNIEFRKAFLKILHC

[3] = target: Glutamate NMDA receptor (Rattus norvegicus) (UniProt P35439+Q00959+Q00960+Q00961+Q62645+Q8VHN2+Q9R1M7); assay: SafetyScreen: Glutamate (NMDA, Non-Selective) Rat Ion Channel [3H] CGP-39653 Binding LeadHunter Assay, catalogue number: 66; format: protein-complex assay; details: Test compound concentration 10.0 uM
[4] = target: Histamine H2 receptor (Homo sapiens) (UniProt P25021); assay: SafetyScreen: H2 Human Histamine GPCR Binding Antagonist Radioligand LeadHunter Assay, catalogue number: 1208; details: Test compound concentration 10.0 uM
Sequence of Histamine H2 receptor (Homo sapiens) (P25021 whole entry): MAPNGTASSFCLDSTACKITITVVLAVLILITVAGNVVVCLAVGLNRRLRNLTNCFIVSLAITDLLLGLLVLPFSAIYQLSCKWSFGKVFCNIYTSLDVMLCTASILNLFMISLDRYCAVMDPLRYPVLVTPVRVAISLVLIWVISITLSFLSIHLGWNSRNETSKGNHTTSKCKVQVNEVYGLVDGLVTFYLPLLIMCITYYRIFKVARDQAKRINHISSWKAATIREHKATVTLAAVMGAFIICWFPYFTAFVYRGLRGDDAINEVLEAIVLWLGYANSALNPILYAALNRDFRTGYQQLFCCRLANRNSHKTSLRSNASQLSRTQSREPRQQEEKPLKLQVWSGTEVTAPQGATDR

[5] = target: Voltage-gated L-type calcium channel (Rattus norvegicus, UniProt P22002+Q02485+P27732); assay: SafetyScreen: Cav1.2 (L-type) Rat Calcium Ion Channel Binding (Dihydropyridine Site) LeadHunter Assay, catalogue number: 161; format: protein assay; details: at 10 µM, test compound concentration 10 uM
Rattus norvegicus = species: Rattus norvegicus; assay: SafetyScreen: KV (Non-Selective) Rat Potassium Ion Channel [125I] alpha-Dendrotoxin Binding LeadHunter Assay, catalogue number: 166; details: Test compound concentration 10.0 uM
[6] = target: Sodium-dependent noradrenaline transporter (Homo sapiens) (UniProt P23975); assay: SafetyScreen: NET Human Norepinephrine Transporter Binding Antagonist Radioligand LeadHunter Assay, catalogue number: 355; details: Test compound concentration 10.0 uM
Sequence of Sodium-dependent noradrenaline transporter (Homo sapiens) (P23975 whole entry): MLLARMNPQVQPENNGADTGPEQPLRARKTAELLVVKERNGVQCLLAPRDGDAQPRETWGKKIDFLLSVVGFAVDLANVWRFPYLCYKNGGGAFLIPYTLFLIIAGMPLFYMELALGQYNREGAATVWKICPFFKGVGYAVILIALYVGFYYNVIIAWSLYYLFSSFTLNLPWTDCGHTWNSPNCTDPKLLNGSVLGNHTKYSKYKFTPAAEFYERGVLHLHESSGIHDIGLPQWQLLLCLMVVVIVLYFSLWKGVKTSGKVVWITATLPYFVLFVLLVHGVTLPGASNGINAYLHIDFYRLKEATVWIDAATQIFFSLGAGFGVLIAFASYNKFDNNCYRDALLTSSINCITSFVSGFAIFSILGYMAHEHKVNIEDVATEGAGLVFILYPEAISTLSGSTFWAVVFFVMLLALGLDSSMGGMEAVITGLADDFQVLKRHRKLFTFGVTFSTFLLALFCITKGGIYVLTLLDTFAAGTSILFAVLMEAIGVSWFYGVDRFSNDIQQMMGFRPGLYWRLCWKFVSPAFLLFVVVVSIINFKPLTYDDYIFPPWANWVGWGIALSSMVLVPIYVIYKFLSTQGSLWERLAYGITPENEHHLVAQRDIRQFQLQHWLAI

Row | SMILES | inhibition [1] [%] | inhibition [2] [%] | inhibition [3] [%] | inhibition [4] [%] | Inhibition [5] [%] | inhibition (Rattus norvegicus) [%] | inhibition [6] [%]
1 | Cn1ncc(-c2cc3c(N[C@@H](c4ccc5c(n4)OCCO5)C(C)(C)C)ncnc3[nH]2)c1C#N | 54 | 13 | 11 | -10 | 21 | 5 | 27
2 | C[C@H](C(=O)O)[C@@H](NC(=O)c1ncnc2[nH]ccc12)c1ccc(Br)cc1 | -8 | -1 | 4 |  | -12 | 0 | -6
3 | CC(C)[C@@H](Nc1ncnc2[nH]c(-c3cnn(C)c3C#N)cc12)c1ccc2c(n1)OCCO2 | 11 | 3 | 1 |  | 10 | 2 | 4
4 | CNC(=O)Cn1cc(-c2cc3c(N[C@@H](c4ccc5c(c4)S(=O)(=O)CCC5)C(C)C)ncnc3[nH]2)cn1 | 11 |  | -1 |  | -1 | -2 | -7
5 | CC(C)[C@H](Nc1ncnc2[nH]c(-c3cnn(C)c3C#N)cc12)c1ccc2c(n1)OCCO2 | 34 | -7 | 2 |  | 9 | 0 | 9
6 | CNCc1cc(-c2cc3c(N[C@@H](c4ccc5c(c4)S(=O)(=O)CCC5)C(C)C)ncnc3[nH]2)co1 | 50 | -9 | -1 | -3 | -3 | 1 | 39
7 | COc1ccc([C@H](Cc2nnn[nH]2)NC(=O)c2ncnc3[nH]ccc23)cc1 | -7 | -4 | 9 |  | -22 | -1 | -5
8 | CC(C)[C@@H](Nc1ncnc2[nH]c(C(=O)N[C@@H]3CCN(C)C3)cc12)c1ccc2c(c1)S(=O)(=O)CCC2 | 38 | -7 | 1 | -9 | -6 | 2 | -1
9 | CC(C)[C@H](Nc1ncnc2[nH]ccc12)c1ccc2c(c1)S(=O)(=O)CCC2 | -2 |  | -1 | -6 | 12 | -10 | -3
10 | Cc1nn(C)cc1-c1cc2c(N[C@H](c3ccc4c(c3)S(=O)(=O)CCC4)C(C)C)ncnc2[nH]1 | 8 |  | -2 | -4 | 12 | 1 | -2

Source: ChEMBL document CHEMBL5442334, “ASAP - In vitro safety pharmacology profile” (2024)
